Several values for one entry are separate records, joined by “and”; a condition that tells them apart may be missing. Identical values can stand only once.
Columns and labels:
[1] = tested on: Huh7 cells; experiment: Cytotoxicity assay (CellTiter Glo) on hepatocarcinoma cells; type: cell-based; conditions: ratio CC50 FB789 / CC50 Huh7
Method: (§1) Cell-based assays were carried out on the normal human fibroblast FB789 cell line (kindly provided by Elena Dell’Ambra from IRCCS Istituto Dermopatico dell’Immacolata, Rome), on the Huh7 hepatocarcinoma cell line (kindly provided by Istituto Toscano Tumori, Core Research Laboratory, Siena, Italy), on the Caco-2 adenocarcinoma colorectal cell line (ATCC catalog. n. HTB-37), on the suspension H9 cell line (repository code ARP0001, NIBSC Centre for AIDS reagents) and on the adherent TZM-bl cell line (repository code ARP5011, NIBSC Centre for AIDS reagents).
(§2) High glucose Dulbecco’s Modified Eagle Medium with sodium pyruvate and L-glutamine (DMEM; Euroclone) was used to grow Huh-7 and TZM-bl. Minimum Essential Eagle Medium (EMEM; Euroclone) was used to propagate Caco-2. DMEM and EMEM were supplemented with 10% fetal bovine serum (FBS; Euroclone) and 1% penicillin/streptomycin (Pen/Strep, Euroclone). The growth medium with a lower concentration of FBS (1%) was used for viral propagation, cytotoxic and antiviral experiments in adherent cell lines. […] All cell lines were grown at 37 °C in a 5% CO2 atmosphere in a humidified incubator.
(§3) The cytotoxicity of all investigated compounds was assayed in all cells lines as previously described. Briefly, confluent cells were treated with decreasing compound concentrations for 48h. The final DMSO concentration used was never greater than 0.5% v/v. Each experiment was performed in duplicate and repeated in two independent experiments. Cell viability was calculated using the CellTiter Glo 2.0 kit (Promega, Madison, WI, USA) and luminescence values signal obtained from cells treated with serial dilution of the compounds were measured through the GloMax® Discover Multi mode Microplate Reader (Promega) and elaborated with GraphPad PRISM software version 9.0 (La Jolla, San Diego, CA, USA). […] A non-toxic dose of each compound was used as the starting concentration in the antiviral activity assay.

[2] = as above; type: cell-based; conditions: human, Huh7 hepatocarcinoma cells, Huh7 hepatocarcinoma
Method: as §1, §2, §3

[3] = Cytotoxicity assay (CellTiter Glo) on colon epithelial carcinoma cells; conditions: human, Caco-2
[4] = tested on: Caco-2 cells; experiment: as above; conditions: ratio CC50 FB789 / CC50 Caco-2
[5] = Cytotoxicity assay (CellTiter Glo) on normal fibroblasts; type: cell-based, human; conditions: human, FB789 normal fibroblast cells
Method: as §1
The FB789 was cultured in Dulbecco’s Modified Eagle Medium (DMEM) and Ham’s F10 in a ratio of 50%, supplemented with 10% FBS, 2 mM L-glutamine, and 10,000 unit/mL penicillin/streptomycin.
as §3

[6] = tested on: H9 cells; experiment: Cytotoxicity assay (CellTiter Glo) on lymphoma cells; conditions: ratio CC50 FB789 / CC50 H9
[7] = as above; conditions: human
[8] = Parallel artificial membrane permeability assay (PAMPA); type: in vitro ADME; conditions: GI, pH 7.4, 5 h, RT
Method: To evaluate the apparent permeability of tested compounds, a DMSO stock solution [1 mM] of each derivative was prepared and then diluted 1:1 v/v with phosphate buffer (PBS 25 mM, pH 7.4) in order to make the donor solutions. According to the protocol already published, the gastrointestinal (GI) phospholipidic bilayer was mimed through adding a 1% w/v dodecane solution of phosphatidylcholine (PC). The sandwich plates were assembled and incubated for 5 h at RT. At the end time point, the amount of compound passed through the phospholipid bilayer was measured using HPLC-UV/MS. Finally, apparent permeability (Papp) and membrane retention (MR%) were calculated as previously described.

[9] = Kinetic aqueous solubility; type: physicochemical; conditions: Milli-Q water, 25 °C, water, kinetic from dmso stock; Mill-Q H2O, 3 h, RT; LOD 0.1 µg/mL
Method: For the quantitative analysis, a UV/LC-MS system was used. LC analysis was performed through an Agilent 1260 Infinity HPLC-DAD system (Agilent Technologies, Palo Alto, CA, USA), which constituted of a vacuum solvent degassing unit, a binary high-pressure gradient pump, and a UV detector, that was connected to an Agilent MSD 6130 system (Agilent Technologies, Palo Alto, CA, USA). The Agilent 1260 series mass spectra detection (MSD) single-quadrupole instrument was equipped with the orthogonal spray API-ES (Agilent Technologies, Palo Alto, CA, USA). Nitrogen was used as a nebulizing and drying gas. Chromatographic separation was performed using a Phenomenex Kinetex EVO C18-100 Å (150 × 4.6 mm, 5 μm particle size) at 25 °C and a gradient elution with a binary solution; eluent A was H2O, while eluent B consisted of ACN (both eluents were acidified with FA 0.1% v/v). […] UV detection was monitored at 254 nm. Spectra were acquired over the scan range m/z 100–1500 in positive mode.
DMSO-stock compounds’ solutions were diluted with Mill-Q H2O to a final concentration of 200 μM. The percentage of DMSO never exceeded 2% v/v. Samples were incubated under gentle shaking at 25 °C (RT) conditions for 3 h. The suspensions were filtered using a 0.45 µm nylon filter (Acrodisc, VWR, Radnor, PE, USA), and the amount of solubilized compound was determined with the HPLC-UV-MS method reported above. The quantification of the solubilized compound was made with the appropriate calibration curve realized with stock solutions in DMSO (0.1–100 µg/mL). The limit of detection (LOD) was quantified at 0.1 µg/mL.

[10] = Plasma stability assay; type: in vitro ADME; conditions: human plasma, 24 h, 37 °C; % of Time 0
Method: A DMSO solution of each compound was incubated at a final concentration of 100 µM at 37 °C under shaking with HEPES buffer (25 mM, 140 mM NaCl, pH 7.4) and human plasma. At time 0 and after 24 h, samples were collected from the reaction mixtures and treated with cold ACN. After centrifugation at 5000 rpm for 10 min, the supernatant was collected, and the amount of unmodified compound was determined using the HLPC-UV/MS method described above. Modified compounds were calculated using time zero as 100% of the unmodified compound.

[11] = Metabolic stability assay with human liver microsomes; type: in vitro ADME; conditions: 1 h, 37 °C, 50 µM
Method: A DMSO solution of selected compounds was incubated in the presence of phosphate buffer (25 mM, pH 7.4), human liver microsomal protein (200 µg/mL), and an NADPH regenerating system in MgCl2 (48 mM) at a final concentration of 50 µM. The metabolic reactions were conducted for 1 h under shaking at 37 °C and then stopped by adding cold acetonitrile (ACN). Centrifuging the mixtures at 5000 rpm, the supernatant was separated, dried under nitrogen flow, and finally suspended in methanol (MeOH). The amount of the parent drug and the metabolites were determined as previously described.

[12] = triazines 1-9, read-out 48 h, Cell-Titer Glo
[13] = pyrimidines and pyridines, read out at 48 h, mean ± SD

Compound	TSI Huh7 ([1]; triazines 1-9)	CC50 at 48 h ([2]; triazines 1-9, read-out 48 h)	CC50 at 48 h [3]	TSI Caco-2 ([4]; triazines 1-9)	CC50 at 48 h [5, 12]	TSI H9 ([6]; triazines 1-9)	CC50 at 48 h [7]	TSI Huh7 ([1]; pyrimidines and pyridines)	CC50 at 48 h [2, 13]	TSI Caco-2 ([4]; pyrimidines and pyridines)	CC50 at 48 h [5, 13]	TSI H9 ([6]; pyrimidines and pyridines)	MR (membrane retention) [8]	Papp at 5 h, 0.5 mM [8]	solubility kinetic at 3 h [9]	Plasmatic Stability [10]	Metabolic Stability [11]
Cc1cccc(/C=N/Nc2nc(Nc3ccc(F)cc3)nc(N3CCOCC3)n2)c1 [Compound 6]	2.1	47 ± 5 µM	22 ± 2 µM	4.5	100 ± 8 µM	<1.0	> 100 µM										
Oc1ccccc1/C=N/Nc1cc(Nc2ccc(F)cc2)nc(N2CCOCC2)c1 [Compound 38a]			19 ± 0.1 µM				37 ± 2 µM	0.1	24 ± 14 µM	0.2	3 ± 1 µM	0.1					
Oc1ccccc1/C=N/Nc1cc(Nc2ccc(F)cc2)nc(Nc2ccc(F)cc2)n1 [Compound 19a]			2 ± 1 µM				31 ± 8 µM	14.0	1 ± 0.3 µM	7.0	14 ± 3 µM	0.5	20.99% and 20.91 ± 1.75%	3.59 ± 0.21 ×10⁻⁶ cm/s	< 0.1 µg/mL	86.64 ± 0.17%	>99.9%
Cc1cccc(/C=N/Nc2cc(N3CCOCC3)nc(N3CCOCC3)c2)c1 [Compound 27b]			30 ± 2 µM				50 ± 4 µM		39 ± 3 µM	2.7	81 ± 2 µM						
CC(=O)Nc1ccc(/C=N/Nc2nc(N3CCOCC3)nc(N3CCOCC3)n2)cc1 [Compound 2]	<0.7	> 200 µM	> 200 µM	<0.7	134 ± 11 µM	<1.3	> 100 µM										
Oc1ccccc1/C=N/Nc1cc(N2CCOCC2)nc(N2CCOCC2)c1 [Compound 27a]			29 ± 2 µM				76 ± 4 µM		44 ± 5 µM		11 ± 3 µM						
Oc1ccccc1/C=N/Nc1nc(Nc2ccc(F)cc2)nc(Nc2ccc(F)cc2)n1 [Compound 7]	3.5	2 ± 0.4 µM	0.8 ± 0.1 µM	8.8	7 ± 2 µM	3.5	2 ± 1 µM										
Cc1cccc(/C=N/Nc2cc(Nc3ccc(F)cc3)nc(Nc3ccc(F)cc3)n2)c1 [Compound 19b]			4 ± 1 µM				48 ± 3.5 µM	10.2	6 ± 1 µM	15.3	61 ± 9 µM	1.3	27.42% and 27.42 ± 1.22%	5.64 ± 0.59 ×10⁻⁶ cm/s	< 0.1 µg/mL	>99.9%	98.31 ± 0.11%
Cc1cccc(/C=N/Nc2nc(Nc3ccc(F)cc3)nc(Nc3ccc(F)cc3)n2)c1 [Compound 9]		> 200 µM	200 µM		50 ± 5 µM		> 100 µM										

Reference: PMC11013010, “Serendipitous Identification of Azine Anticancer Agents Using a Privileged Scaffold Morphing Strategy” (Molecules, 2024)
